“And” between values parts separate entries of the source, which are not always exact repeats. Identical values can stand only once. Like-named read-outs stand apart in the source and are kept apart here.
Legend:
[1] = tested on: Staphylococcus saprophyticus biofilm; assay: Checkerboard combination assay, biofilm eradication; format: cell-based
Procedure, shortened: (§1)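 Biofilms preformed for 24 h were washed and exposed to antibiotics (0.0625–128 µg/mL) combined with NPs (4–512 µg/mL) for 24 h at 37°C in checkerboard format. Viability was read by MTT reduction to set MBEC, and FICI was calculated for the combination.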

S. epidermidis biofilm = assay: Time-kill kinetic assay on biofilm inhibition; format: cell-based, Staphylococcus epidermidis; conditions: at 24 h
Method: The biofilm formation inhibitory activity of NPs and ATBs was carried out according to the method previously described. A total of 100 µL of bacterial inoculum (1.5 × 10^6 CFU/mL) was used, and 100 µL of each sample was added to the microplate to achieve final concentrations ranging from 0.25 µg/mL to 128 µg/mL for ATBs and from 8 µg/mL to 1024 µg/mL for NPs. Then, the microplate was incubated at 37°C for 24 h. After incubation, the plates were gently emptied and washed three times with a phosphate buffer solution at pH 7.2. Then, the MTT solution (0.5 mg/mL) prepared in PBS was introduced into each well, and the microplate was further incubated at 37°C for 24 h. Untreated wells containing bacterial suspension and MHB supplemented with 1% glucose were considered positive controls, and wells containing only MHB+1% glucose without bacteria were used as blanks. After incubation, the MTT solution was aspirated, then 150 µL of DMSO was introduced to dissolve the formazan crystal formed by viable bacteria, and the optical density (OD) was measured at 570 nm using a microplate reader (VERSA-max). The percentage of biofilm inhibition was calculated using the formula below, and the minimal biofilm inhibitory concentration (MBIC) was recorded as the lowest concentration of NPs or ATBs that inhibited 100% of biofilm:(1) % biofilm inhibition=ODcontrol−ODblank−ODtest−ODblank/ODcontrol−ODblank×100.
The five best synergistic antibiofilm combinations were selected, and their ability to inhibit biofilm formation and eradication as a function of time was evaluated at 4-h intervals for 24 h by the microtiter plate method, as previously described. The synergistic antibiofilm combinations selected were with FICI < 0.4, named C1 to C5. C1: cefixime (5.33 µg/mL) + thymol (32 µg/mL); C2: cefazolin (1.16 µg/mL) + thymol (21.33 µg/mL); C3: amikacin (0.18 µg/mL) + curcumin (37.33 µg/mL); C4: kanamycin (0.25 µg/mL) + curcumin (14 µg/mL); and C5: amoxicillin (1.16 µg/mL) + curcumin (21.33 µg/mL). The kinetics of biofilm inhibition and eradication were performed as described above for the biofilm inhibition and eradication assay using the indicated combinations, followed by the reading of the optical densities (570 nm) at 4-h intervals over 24 h (0, 4, 8, 12, 16, and 24 h). In both cases, experiments were carried out three times in triplicate.

Raw 264.7 macrophages = assay: Cytotoxicity, MTT assay; format: cell-based; conditions: Raw 264.7, MTT
Method: (§2) Two cell lines, including Raw 264.7 macrophages and the urinary epithelial cell line UROtsa obtained from the American Type Culture Collection (Rockville, MD, USA), were used. They were cultured in Dulbecco's modified Eagle's medium (DMEM), which was supplemented with 10% fetal bovine serum (FBS) and 1% penicillin, streptomycin, and fungizone (PSF). They were then grown at 37°C in a humidified environment containing 5% CO2.
(§3) The cytotoxicity of the selected synergistic combinations, as well as the individual constituents of combinations, against the abovementioned cell lines was performed by the MTT assay as previously described. Briefly, cells from each line were harvested in the logarithmic phase using trypsin (0.05% trypsin, 0.02% EDTA in PBS). Cell suspension was diluted with an appropriate growth medium to obtain a cell density of 10^4 cells/well. A 100 µL aliquot of each suspension was seeded into 96-well cell culture plates and incubated at 37°C in an atmosphere of 5% CO2 and 95% relative humidity. After 24 h of incubation, 100 µL of samples (ATBs and NPs) at concentrations varying from 0.01, 0.1, 1, 10, 100, and 1000, as well as the synergistic combinations (C1 to C5), was added to the wells containing the cells. Doxorubicin was used as a positive control. Appropriate controls with an equivalent concentration of DMSO were also included. Plates were incubated for 48 h, then the medium in each well was aspirated, and MTT solution (2 mg/mL in PBS) was diluted 1:10 with fresh medium and added to each well, and the plates were further incubated at 37°C for 4 h. Absorbance was measured on a BioTek microplate reader at 570 nm. The percentage of cell viability was calculated by comparing treated and untreated cells using the equation [39]:(3) cell viability %=ODtest/ODcontrol×100.
(§4) Then, the IC50 values of the samples having shown at least 50% inhibition were calculated by plotting the percentage of inhibition against the concentrations.

[2] = tested on: UROtsa urinary epithelial cells; assay: Cytotoxicity, MTT assay; format: cell-based; conditions: 48 h
Method: as §2, §3, §4

[3] = tested on: Staphylococcus aureus biofilm; assay: Checkerboard combination assay, biofilm eradication; format: cell-based
Procedure, shortened: as §1

[4] = S. saprophyticus, biofilm eradication, mean
[5] = C1 and its components (cefixime 5.33 µg/mL, thymol 32 µg/mL)
[6] = C2 and its components (cefazolin 1.16 µg/mL, thymol 21.33 µg/mL)
[7] = Mus musculus, RAW264.7, 48 h, read-out: IC50
[8] = Epithelial cell, read-out: IC50
[9] = S. aureus, biofilm eradication, mean
[10] = S. aureus biofilm eradication, antibiotic alone, mean MBEC
[11] = S. saprophyticus biofilm eradication, antibiotic alone, mean MBEC

Cc1ccc(C(C)C)c(O)c1 [Thymol, thymol]
MBEC Alone NPs [1, 4]: 128 µg/mL | OD (570 nm), biofilm inhibition (S. epidermidis biofilm; [5]): 0.67 | OD (570 nm), biofilm inhibition (S. epidermidis biofilm; [6]): 0.96 | IC50 (Raw 264.7 macrophages; [7]): 442 µg/mL | IC50 [2, 8]: > 1000 µg/mL

COc1ccc2cc3[n+](cc2c1OC)CCc1cc2c(cc1-3)OCO2 [Berberine, berberine]
MBEC Alone NPs [3, 9]: 149.33 µg/mL | MBEC Alone NPs ([1]; S. saprophyticus biofilm eradication, natural product alone, mean MBEC, listed as Ber): 128 µg/mL and 85.33 µg/mL and 106.66 µg/mL and 170.66 µg/mL | MBEC Alone NPs [1, 4]: 128 µg/mL

Cc1nnc(SCC2=C(C(=O)O)N3C(=O)[C@@H](NC(=O)Cn4cnnn4)[C@H]3SC2)s1 [Cefazolin, cefazolin]
MBEC Alone ATB [3, 10]: 42.66 µg/mL | MBEC Alone ATB [3, 9]: 42.66 µg/mL | MBEC Alone ATB [1, 11]: 10.66 µg/mL | MBEC Alone ATB [1, 4]: 48 µg/mL | OD (570 nm), biofilm inhibition (S. epidermidis biofilm; [6]): 1.27 | IC50 (Raw 264.7 macrophages; [7]): > 1000 µg/mL | IC50 (Raw 264.7 macrophages; 48 h): 504.26 µg/mL | IC50 [2]: — (IC50 > 1000 µg/mL) | IC50 [2, 8]: > 1000 µg/mL

O=C(O)c1cc(O)c(O)c(O)c1 [Gallic acid, 3,4,5-trihydroxybenzoic acid]
MBEC Alone NPs ([3]; S. aureus biofilm eradication, natural product alone, mean MBEC): 298.66 µg/mL

NCC[C@H](O)C(=O)N[C@@H]1C[C@H](N)[C@@H](O[C@H]2O[C@H](CN)[C@@H](O)[C@H](O)[C@H]2O)[C@H](O)[C@H]1O[C@H]1O[C@H](CO)[C@@H](O)[C@H](N)[C@H]1O [Amikacin, amikacin]
MBEC Alone ATB [3, 10]: 13.33 µg/mL | MBEC Alone ATB [3, 9]: 13.33 µg/mL | MBEC Alone ATB [1, 11]: 13.33 µg/mL | IC50 (Raw 264.7 macrophages; [7]): > 1000 µg/mL | IC50 (Raw 264.7 macrophages; 48 h): — (IC50 > 1000 µg/mL) | IC50 [2]: — (IC50 > 1000 µg/mL) | IC50 [2, 8]: > 1000 µg/mL

CC1=CC(=O)c2c(O)cccc2C1=O [Plumbagin, plumbagin]
MBEC Alone NPs [1, 4]: 10.66 µg/mL

NC[C@H]1O[C@H](O[C@H]2[C@H](O)[C@@H](O[C@H]3O[C@H](CO)[C@@H](O)[C@H](N)[C@H]3O)[C@H](N)C[C@@H]2N)[C@H](O)[C@@H](O)[C@@H]1O [Kanamycin, kanamycin]
MBEC Alone ATB [3, 10]: 14.66 µg/mL | MBEC Alone ATB [1, 11]: 10.66 µg/mL | IC50 (Raw 264.7 macrophages; 48 h): — (IC50 > 1000 µg/mL) | IC50 [2]: — (IC50 > 1000 µg/mL)

CC[C@H]1OC(=O)[C@H](C)[C@@H](O[C@H]2C[C@@](C)(OC)[C@@H](O)[C@H](C)O2)[C@H](C)[C@@H](O[C@@H]2O[C@H](C)C[C@H](N(C)C)[C@H]2O)[C@](C)(O)C[C@@H](C)C(=O)[C@H](C)[C@@H](O)[C@]1(C)O [Erythromycin, erythromycin]
MBEC Alone ATB [3, 10]: 44 µg/mL | MBEC Alone ATB [1, 11]: 29.33 µg/mL | MBEC Alone ATB [1, 4]: 29.33 µg/mL

C=CC1=C(C(=O)O)N2C(=O)[C@@H](NC(=O)/C(=N\OCC(=O)O)c3csc(N)n3)[C@H]2SC1 [Cefixime, cefixime]
MBEC Alone ATB [3, 10]: 42.66 µg/mL | MBEC Alone ATB [1, 11]: 48 µg/mL | MBEC Alone ATB [1, 4]: 48 µg/mL | OD (570 nm), biofilm inhibition (S. epidermidis biofilm; [5]): 0.84 | IC50 (Raw 264.7 macrophages; 48 h): 473.83 µg/mL | IC50 [2]: — (IC50 > 1000 µg/mL) | IC50 [2, 8]: > 1000 µg/mL

C[C@H]1c2cccc(O)c2C(=O)C2=C(O)[C@]3(O)C(=O)C(C(N)=O)=C(O)[C@@H](N(C)C)[C@@H]3[C@@H](O)[C@@H]21 [Doxycycline, doxycycline]
MBEC Alone ATB [3, 10]: 16 µg/mL | MBEC Alone ATB [1, 11]: 9.33 µg/mL

CC1(C)S[C@@H]2[C@H](NC(=O)[C@H](N)c3ccc(O)cc3)C(=O)N2[C@H]1C(=O)O [Amoxicillin, amoxicillin]
MBEC Alone ATB [3, 10]: 37.33 µg/mL | MBEC Alone ATB [1, 11]: 9.33 µg/mL | IC50 (Raw 264.7 macrophages; [7]): > 1000 µg/mL | IC50 (Raw 264.7 macrophages; 48 h): — (IC50 > 1000 µg/mL) | IC50 [2]: — (IC50 > 1000 µg/mL) | IC50 [2, 8]: > 1000 µg/mL

COc1cc(/C=C/C(=O)CC(=O)/C=C/c2ccc(O)c(OC)c2)ccc1O [Curcumin, curcumin]
MBEC Alone NPs ([3]; S. aureus biofilm eradication, natural product alone, mean MBEC, listed as Cur): 128 µg/mL and 149.33 µg/mL and 170.66 µg/mL and 106.66 µg/mL | MBEC Alone NPs [3, 9]: 277.33 µg/mL | MBEC Alone NPs ([1]; S. saprophyticus biofilm eradication, natural product alone, mean MBEC, listed as Cur): 170.66 µg/mL and 213.33 µg/mL | IC50 (Raw 264.7 macrophages; [7]): 94.4 µg/mL | IC50 [2, 8]: 51.9 µg/mL
